# Data published in patent publication US20240041870A1, “METHODS OF TREATING SYSTEMIC LUPUS ERYTHEMATOSUS” (AbbVie Inc., priority 2022, published 2024).
# Tested on: subjects with moderately to severely active SLE
# Assay: Phase 2 Study M19-130: safety and efficacy of upadacitinib vs placebo, 48-week treatment period
# Type: in vivo, human
# From the text: This was a Phase 2 Study (M19-130) to Investigate the Safety and Efficacy of Upadacitinib Given in Subjects with Moderately to Severely Active Systemic Lupus Erythematosus.
# Subjects must have had active SLE by SLEDAI-2K ≥6 as reported and independently adjudicated (clinical score ≥4, excluding lupus headache and/or organic brain syndrome) at Screening and Baseline. If 4 points of the required entry points were for arthritis, there must also have been a minimum of 3 tender and 3 swollen joints.
# The primary efficacy endpoint was achievement of SLE Responder Index (SRI)-4 and steroid dose ≤10 mg prednisone equivalent once a day (QD) at Week 24. SLE Responder Index (SRI)-4 is defined as ≥4-point reduction in Systemic Lupus Erythematosus Disease Activity Index 2000 (SLEDAI-2K) score without worsening of the overall condition (no worsening in Physician's Global Assessment [PhGA], <0.3 point increase) or the development of significant disease activity in new organ systems (no new British Isles Lupus Assessment Group ([BILAG]) A or >1 new BILAG B).
# The following secondary efficacy endpoints were evaluated: • 1. Achievement of SRI-4 at Week 24 • 2. Achievement of BILAG-Based Combined Lupus Assessment (BICLA) response at Week 24 • 3. Achievement of Lupus Low Disease Activity State (LLDAS) at Week 24 • 4. Steroid burden, assessed as change from Baseline at Week 24 • 5. Number of mild, moderate, or severe flares per patient-year (respectively and overall) by Safety of Estrogens in Lupus Erythematosus National Assessment (SELENA) SLEDAI Flare Index (SFI), assessed by number and types of flare per subject through Week 24
# The following additional efficacy endpoints were evaluated at all visits unless otherwise noted: • 1. Achievement of SRI-4 • 2. Achievement of SRI-5, -6, -7, -8 and steroid dose ≤10 mg prednisone equivalent QD at Weeks 24 and 48 • 3. Achievement of SRI-5, -6, -7, -8 • 4. Achievement of BICLA response • 5. Achievement of LLDAS • 6. Achievement of ≥4-point decrease in SLEDAI-2K from Baseline • 7. Steroid burden, assessed as change from Baseline • 8. Number of mild, moderate, or severe flares per patient-year (respectively and overall) by SELENA SFI, assessed by number and types of flare per subject through Week 24 and Week 48 • 9. Time to first flare by SELENA SFI after first study drug administration up to Week 24 and Week 48 • 10. Achievement of 50% reduction of tender or swollen lupus joints defined as ≥50% decrease in either tender or swollen joints (of those starting with total ≥6 affected joints) • 11. Achievement of 50% reduction in Cutaneous Lupus Erythematosus Disease Area and Severity Index (CLASI) activity score (of those starting with CLASI ≥10) • 12. Change in SLEDAI-2K from Baseline • 13. Change in BILAG from Baseline • 14. Change in PhGA from Baseline • 15. Change in Patient Global Assessment (PtGA) from Baseline • 16. Change from Baseline in Functional Assessment of Chronic Illness Therapy (FACIT)—Fatigue at Weeks 2, 12, 24, and 48 • 17. Change from Baseline in 36-Item Short Form Health Survey (SF-36) at Weeks 2, 12, 24, and 48 • 18. Change from Baseline Lupus Quality of Life questionnaire (LupusQoL) at Weeks 2, 12, 24, and 48 • 19. Change from Baseline Pain Numerical Rating Scale (NRS) at Weeks 2, 12, 24, and 48
# The study was designed to investigate the safety and efficacy of upadacitinib in subjects with moderately to severely active SLE despite standard of care therapy. The study duration included a 42-day maximum screening period, a 48-week randomized, placebo-controlled, double-blind, parallel-group treatment period, and a 30-day follow-up phone call. The Week 24 Primary Analysis was performed when all subjects completed the Week 24 visit or discontinued the study. Sites and subjects remained blinded throughout the study. The study team remained blinded until the Week 24 Primary Analysis. […]
# [1] = 30 mg QD oral, N = 62, Week 24 interim analysis (Example 1)
# [2] = 30 mg QD oral, N = 62, Week 24 interim analysis (Example 1), listed as UPA
# [3] = 30 mg QD oral, N = 62, final database (Example 2)
# [4] = 30 mg QD oral, N = 62, full analysis set, Week 24 interim analysis (Example 1)
# [5] = 30 mg QD oral, final database (Example 2)
# [6] = 30 mg QD vs PBO (N = 75), stratum-adjusted, final database (Example 2)
# [7] = 30 mg QD, N = 62, subject disposition, Week 24 interim analysis
smiles,measurement,setting,value
"CC[C@@H]1CN(C(=O)NCC(F)(F)F)C[C@@H]1c1cnc2cnc3[nH]ccc3n12 [Upadacitinib, (3S,4R)-3-ethyl-4-(3H-imidazo[1,2-a]pyrrolo[2,3-e]pyrazin-8-yl)-N-(2,2,2-trifluoroethyl)pyrrolidine-1-carboxamide]",Prednisone Equivalent Steroid Dose; Week 48; LS Mean Change (SE),"30 mg QD oral, N = 38, final database (Example 2)",−1.20 (0.524)
same,Prednisone Equivalent Steroid Dose at Week 24; LS Mean Change (SE),"30 mg QD oral, N = 48, change from Baseline, Week 24 interim analysis (Example 1)",−0.64 (0.486)
same,Prednisone Equivalent Steroid Dose; Week 24; LS Mean Change (SE),"30 mg QD oral, N = 48, final database (Example 2)",−0.62 (0.496)
same,BICLA at Week 24; %,[1],58.1%
same,BICLA at Week 24; n,[1],36 n
same,Flares per SELENA SLEDAI Flare Index through Week 24; Any flares,[1],1.73 Events/PY
same,Flares per SELENA SLEDAI Flare Index through Week 24; Mild/Moderate,[1],1.66 Events/PY
same,Flares per SELENA SLEDAI Flare Index through Week 24; Severe,[1],0.07 Events/PY
same,LLDAS at Week 24; %,[1],(43.5) %
same,LLDAS at Week 24; n,[1],27 n
same,SRI-4 at Week 24; %,[1],53.6%
same,SRI-4 at Week 24; n,[1],33 n
same,BICLA at Week 24; %,[2],(58.1) %
same,SRI-4 at Week 24; %,[2],(53.2) %
same,BICLA; Week 24; %,[3],(58.1) %
same,BICLA; Week 24; n,[3],36 n
same,BICLA; Week 48; %,[3],(53.2) %
same,BICLA; Week 48; n,[3],33 n
same,Flares per SELENA SLEDAI Flare Index Through Week 48; Any flares,[3],2.04 Events/PY
same,Flares per SELENA SLEDAI Flare Index Through Week 48; Mild/Moderate,[3],1.88 Events/PY
same,Flares per SELENA SLEDAI Flare Index Through Week 48; Severe,[3],0.16 Events/PY
same,Flares per SELENA SLEDAI Flare Index through Week 24; Any flares,[3],1.87 Events/PY
same,Flares per SELENA SLEDAI Flare Index through Week 24; Mild/Moderate,[3],1.76 Events/PY
same,Flares per SELENA SLEDAI Flare Index through Week 24; Severe,[3],0.10 Events/PY
same,LLDAS; Week 24; %,[3],(45.2) %
same,LLDAS; Week 24; n,[3],28 n
same,LLDAS; Week 48; %,[3],(50.0) %
same,LLDAS; Week 48; n,[3],31 n
same,SRI-4; Week 24; %,[3],(56.5) %
same,SRI-4; Week 24; n,[3],35 n
same,SRI-4; Week 48; %,[3],45.2%
same,SRI-4; Week 48; n,[3],28 n
same,SRI-4 and Prednisone Equivalent Steroid Dose ≤10 mg; Week 24; %,[3],(54.8) %
same,SRI-4 and Prednisone Equivalent Steroid Dose ≤10 mg; Week 48; %,[3],(43.5) %
same,SRI-4 and Prednisone Equivalent Steroid Dose ≤10 mg; Week 48; n,[3],27 n
same,SRI-4; Week 48; %,"30 mg QD oral, N = 62, final database (Example 2), listed as UPA",(45.2) %
same,SRI-4 and Prednisone Equivalent Steroid Dose ≤10 mg at Week 24; %,[4],51.6%
same,SRI-4 and Prednisone Equivalent Steroid Dose ≤10 mg at Week 24; n,[4],32 n
same,SRI-4 and Prednisone Equivalent Steroid Dose ≤10 mg at Week 24; %,"30 mg QD oral, N = 62, full analysis set, Week 24 interim analysis (Example 1), listed as UPA",(51.6) %
same,SRI-4 and Prednisone Equivalent Steroid Dose ≤10 mg; Week 24; n,"30 mg QD oral, N = 62, full analysis set, final database (Example 2)",34 n
same,50% Reduction of Tender or Swollen Lupus Joints among Subjects with Total >=6 Affected Joints; Week 24; %,[5],(67.8) %
same,50% Reduction of Tender or Swollen Lupus Joints among Subjects with Total >=6 Affected Joints; Week 24; n,[5],40/59
same,50% Reduction of Tender or Swollen Lupus Joints among Subjects with Total >=6 Affected Joints; Week 48; %,[5],(57.6) %
same,50% Reduction of Tender or Swollen Lupus Joints among Subjects with Total >=6 Affected Joints; Week 48; n,[5],34/59
same,BICLA; Week 48; Adj. Diff (−PBO) [95% CI],[6],30.8
same,SRI-4; Week 48; Adj. Diff (−PBO) [95% CI],[6],30.4
same,SRI-4 and Steroid Dose ≤10 mg prednisone equivalent QD; stratum-adjusted treatment difference,"30 mg QD vs placebo, Week 24, Example 1",14.0%
same,Discontinued from the Study Drug (All Reasons): Adverse event; %,[7],9.7%
same,Discontinued from the Study Drug (All Reasons): Adverse event; n,[7],6 n
same,Discontinued from the Study Drug (Primary Reasons): Adverse event; %,[7],8.1%
same,Discontinued from the Study Drug (Primary Reasons): Adverse event; n,[7],5 n
same,Withdrawal from the Study (All Reasons): Adverse event; %,[7],6.5%
same,Withdrawal from the Study (All Reasons): Adverse event; n,[7],4 n
same,Withdrawal from the Study (Primary Reasons): Adverse event; %,[7],4.8%
same,Withdrawal from the Study (Primary Reasons): Adverse event; n,[7],3 n
same,response rate in BICLA after Week 24,"30 mg, Week 24 to Week 48",generally maintained
same,response rate in SRI-4 after Week 24,"30 mg, Week 24 to Week 48",generally maintained
same,flare compared to placebo,"30 mg, over 48 weeks",reductions in flare
same,time-to-first flare compared to placebo,"30 mg, over 48 weeks",delays in time-to-first flare
same,LLDAS at Week 24 compared with placebo,"30 mg, p<0.001, Example 1",greater efficacy than placebo
same,flare rate through Week 24 compared with placebo,"30 mg, p=0.075, Example 1",lower flare rate
same,response rate for achievement of BICLA at Week 48,"30 mg, text of Example 2",53.2%
